Earlier results as cited in patent publication US4914086A, “Method for treating African human and veterinary trypanosomiases” (priority 1987, dated 1990).

Experiments:
Pneumocystis Carinii = settings: tissue culture; cited from earlier work
Leishmania spp = settings: previous studies; cited from earlier work
T. cruzi = settings: previous studies; cited from earlier work
mammalian cells = settings: cited from earlier work
T. b. brucei = settings: cited from earlier work

## O=c1[nH]cnc2c([C@@H]3O[C@H](CO)[C@@H](O)[C@H]3O)c[nH]c12 [9-DINO, 7-beta-D-ribofuranosyl-4-oxo-3H, 5H-pyrrolo (3,2-d) pyrimidine]
Pneumocystis Carinii
  activity in words: active
Leishmania spp
  activity in words: more active than allopurinol, thipurinol, and their respective nucleosides
T. cruzi
  activity in words: more active than allopurinol, thipurinol, and their respective nucleosides
Mammalian cells
  cleavage into ribose and purine analog moieties: cannot be cleaved into ribose and purine analog moieties

## Nc1ncnc2c1ncn2[C@@H]1O[C@H](C[C@@H](N)CC[C@H](N)C(=O)O)[C@@H](O)[C@H]1O [Sinefungin, 6,9-Diamino-1-(6-amino-9H-purin-9-yl)-1,5,6,7,8,9-hexadeoxy-beta-D-ribo-decofuranuronic acid]
T. b. brucei; 3×5 mg/kg dose, 8 hour intervals
  % curable: 100%
T. b. brucei; multiple daily doses, Dube et al.
  cure in words: cured
